Data as given in ChEMBL document CHEMBL3991601, “The target landscape of clinical kinase drugs” (Science, 2017).
Activity calls are given as the source filed them. For most assays here, no stated cut-off is given here; in the data, actives have a measured Kd and inactives only a lower limit.

How the values were obtained:
[1] = molecular target: Tyrosine-protein kinase Fyn (Homo sapiens, UniProt P06241)
Activin receptor type-2B = Activin receptor type-2B (Homo sapiens, UniProt Q13705)
[2] = molecular target: T1, Mitogen-activated protein kinase kinase kinase 2 (Homo sapiens, UniProt Q9Y2U5)
T1 sequence (Q9Y2U5 whole entry): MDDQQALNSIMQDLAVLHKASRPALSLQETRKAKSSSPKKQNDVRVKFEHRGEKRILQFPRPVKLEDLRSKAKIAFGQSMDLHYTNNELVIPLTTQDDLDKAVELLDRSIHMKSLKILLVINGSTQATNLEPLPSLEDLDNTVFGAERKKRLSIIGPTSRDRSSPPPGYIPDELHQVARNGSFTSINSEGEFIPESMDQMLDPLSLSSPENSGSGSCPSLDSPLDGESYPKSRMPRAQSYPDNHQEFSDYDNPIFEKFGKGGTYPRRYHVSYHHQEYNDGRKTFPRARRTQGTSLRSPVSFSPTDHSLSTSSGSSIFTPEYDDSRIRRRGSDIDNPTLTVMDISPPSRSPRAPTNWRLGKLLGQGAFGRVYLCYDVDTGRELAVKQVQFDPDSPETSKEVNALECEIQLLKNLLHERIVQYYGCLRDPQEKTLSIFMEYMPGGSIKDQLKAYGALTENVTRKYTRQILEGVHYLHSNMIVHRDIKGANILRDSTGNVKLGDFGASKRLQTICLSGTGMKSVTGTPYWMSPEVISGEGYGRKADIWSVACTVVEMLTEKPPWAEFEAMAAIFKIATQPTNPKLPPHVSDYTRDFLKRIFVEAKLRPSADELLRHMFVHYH

[3] = molecular target: T2, Serine/threonine-protein kinase D2 (Homo sapiens, UniProt Q9BZL6)
T2 sequence (Q9BZL6 whole entry): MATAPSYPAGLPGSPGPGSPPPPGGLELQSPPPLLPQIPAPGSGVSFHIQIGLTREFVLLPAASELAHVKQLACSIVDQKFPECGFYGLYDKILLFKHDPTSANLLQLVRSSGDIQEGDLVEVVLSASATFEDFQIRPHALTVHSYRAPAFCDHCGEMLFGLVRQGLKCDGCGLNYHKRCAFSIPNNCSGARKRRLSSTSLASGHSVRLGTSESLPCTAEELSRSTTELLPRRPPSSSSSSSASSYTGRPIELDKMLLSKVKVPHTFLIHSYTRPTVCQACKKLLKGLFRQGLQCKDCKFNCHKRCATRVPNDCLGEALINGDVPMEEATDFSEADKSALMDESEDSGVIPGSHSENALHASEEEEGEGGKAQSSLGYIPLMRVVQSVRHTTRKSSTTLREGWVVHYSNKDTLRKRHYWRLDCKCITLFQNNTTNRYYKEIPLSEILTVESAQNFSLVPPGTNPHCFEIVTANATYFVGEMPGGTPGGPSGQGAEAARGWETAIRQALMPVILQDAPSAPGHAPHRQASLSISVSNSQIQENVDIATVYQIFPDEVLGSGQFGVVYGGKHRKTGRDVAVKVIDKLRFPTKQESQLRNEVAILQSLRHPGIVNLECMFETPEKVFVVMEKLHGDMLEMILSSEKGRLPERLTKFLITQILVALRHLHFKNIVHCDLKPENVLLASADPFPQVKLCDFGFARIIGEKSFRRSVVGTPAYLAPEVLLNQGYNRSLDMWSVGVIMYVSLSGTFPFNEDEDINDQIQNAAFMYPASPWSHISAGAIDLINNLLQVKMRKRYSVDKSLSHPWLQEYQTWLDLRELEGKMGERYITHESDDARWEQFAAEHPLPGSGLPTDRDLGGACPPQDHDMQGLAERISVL

[4] = molecular target: Cyclin-dependent kinase 3 (Homo sapiens, UniProt Q00526)
Adenosine kinase = Adenosine kinase (Homo sapiens, UniProt P55263)
TGF-beta receptor type-2 = TGF-beta receptor type-2 (Homo sapiens, UniProt P37173)
[5] = molecular target: T3, Serine/threonine-protein kinase Nek1 (Homo sapiens, UniProt Q96PY6)
T3 sequence (Q96PY6 whole entry): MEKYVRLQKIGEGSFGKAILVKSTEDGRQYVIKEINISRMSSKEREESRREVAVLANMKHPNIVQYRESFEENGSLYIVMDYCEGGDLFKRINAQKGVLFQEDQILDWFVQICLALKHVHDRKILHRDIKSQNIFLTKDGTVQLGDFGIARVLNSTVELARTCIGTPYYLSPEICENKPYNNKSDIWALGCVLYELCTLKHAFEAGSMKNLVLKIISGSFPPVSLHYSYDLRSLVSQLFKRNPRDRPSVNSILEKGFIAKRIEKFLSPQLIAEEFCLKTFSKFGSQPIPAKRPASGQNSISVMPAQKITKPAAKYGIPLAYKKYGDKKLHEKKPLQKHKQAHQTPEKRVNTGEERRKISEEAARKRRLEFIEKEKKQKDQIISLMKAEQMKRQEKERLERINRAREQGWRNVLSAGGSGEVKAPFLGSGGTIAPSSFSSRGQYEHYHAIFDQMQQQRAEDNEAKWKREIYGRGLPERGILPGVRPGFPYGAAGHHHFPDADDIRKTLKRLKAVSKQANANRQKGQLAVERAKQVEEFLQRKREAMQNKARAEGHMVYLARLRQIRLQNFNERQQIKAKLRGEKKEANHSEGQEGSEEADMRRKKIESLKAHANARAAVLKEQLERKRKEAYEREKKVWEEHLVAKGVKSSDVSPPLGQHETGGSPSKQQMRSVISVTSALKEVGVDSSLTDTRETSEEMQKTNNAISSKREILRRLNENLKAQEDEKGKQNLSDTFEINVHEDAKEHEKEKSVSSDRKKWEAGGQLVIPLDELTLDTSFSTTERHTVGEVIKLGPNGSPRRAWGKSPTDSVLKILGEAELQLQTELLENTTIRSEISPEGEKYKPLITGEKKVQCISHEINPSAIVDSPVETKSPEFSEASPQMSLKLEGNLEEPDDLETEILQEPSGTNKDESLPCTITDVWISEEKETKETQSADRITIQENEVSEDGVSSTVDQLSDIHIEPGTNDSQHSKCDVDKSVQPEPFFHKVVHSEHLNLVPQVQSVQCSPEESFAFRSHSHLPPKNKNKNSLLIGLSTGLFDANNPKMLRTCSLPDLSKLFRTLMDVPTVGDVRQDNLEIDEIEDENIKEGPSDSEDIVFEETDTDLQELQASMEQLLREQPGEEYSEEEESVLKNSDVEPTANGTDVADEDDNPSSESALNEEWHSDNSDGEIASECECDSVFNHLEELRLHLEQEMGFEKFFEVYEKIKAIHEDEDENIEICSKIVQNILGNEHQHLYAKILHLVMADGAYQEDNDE

Activated CDC42 kinase 1 = Activated CDC42 kinase 1 (Homo sapiens, UniProt Q07912)
Activated CDC42 kinase 1, sequence (Q07912 whole entry): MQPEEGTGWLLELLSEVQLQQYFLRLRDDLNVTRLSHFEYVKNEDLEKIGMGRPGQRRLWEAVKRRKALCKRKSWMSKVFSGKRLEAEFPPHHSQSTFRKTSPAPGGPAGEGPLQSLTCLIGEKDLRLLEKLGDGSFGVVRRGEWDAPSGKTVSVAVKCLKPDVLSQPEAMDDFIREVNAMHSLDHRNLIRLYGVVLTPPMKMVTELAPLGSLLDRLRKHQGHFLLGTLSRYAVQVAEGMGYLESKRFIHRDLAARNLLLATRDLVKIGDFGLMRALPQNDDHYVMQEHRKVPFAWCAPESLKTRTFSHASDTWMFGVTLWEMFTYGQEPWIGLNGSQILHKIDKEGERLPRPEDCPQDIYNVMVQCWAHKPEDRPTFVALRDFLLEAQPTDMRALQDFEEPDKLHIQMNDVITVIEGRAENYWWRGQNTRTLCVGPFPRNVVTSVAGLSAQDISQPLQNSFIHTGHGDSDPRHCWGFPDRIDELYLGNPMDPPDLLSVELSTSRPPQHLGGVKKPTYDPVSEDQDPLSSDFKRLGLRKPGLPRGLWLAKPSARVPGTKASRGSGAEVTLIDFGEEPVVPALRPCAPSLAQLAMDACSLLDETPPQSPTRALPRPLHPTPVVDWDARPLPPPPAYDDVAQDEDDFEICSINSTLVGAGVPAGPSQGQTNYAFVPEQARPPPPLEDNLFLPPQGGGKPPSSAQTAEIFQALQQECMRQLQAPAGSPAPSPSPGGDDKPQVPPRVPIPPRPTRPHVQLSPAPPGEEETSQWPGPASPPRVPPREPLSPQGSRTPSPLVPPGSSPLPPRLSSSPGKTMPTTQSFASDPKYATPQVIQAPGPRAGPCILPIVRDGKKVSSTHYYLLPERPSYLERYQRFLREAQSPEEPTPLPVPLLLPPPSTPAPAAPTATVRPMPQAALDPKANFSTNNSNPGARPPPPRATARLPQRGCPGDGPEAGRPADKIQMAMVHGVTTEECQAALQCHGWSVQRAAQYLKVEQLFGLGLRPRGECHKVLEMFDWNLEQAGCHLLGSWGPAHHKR

Activin receptor type-2B, sequence (Q13705 whole entry): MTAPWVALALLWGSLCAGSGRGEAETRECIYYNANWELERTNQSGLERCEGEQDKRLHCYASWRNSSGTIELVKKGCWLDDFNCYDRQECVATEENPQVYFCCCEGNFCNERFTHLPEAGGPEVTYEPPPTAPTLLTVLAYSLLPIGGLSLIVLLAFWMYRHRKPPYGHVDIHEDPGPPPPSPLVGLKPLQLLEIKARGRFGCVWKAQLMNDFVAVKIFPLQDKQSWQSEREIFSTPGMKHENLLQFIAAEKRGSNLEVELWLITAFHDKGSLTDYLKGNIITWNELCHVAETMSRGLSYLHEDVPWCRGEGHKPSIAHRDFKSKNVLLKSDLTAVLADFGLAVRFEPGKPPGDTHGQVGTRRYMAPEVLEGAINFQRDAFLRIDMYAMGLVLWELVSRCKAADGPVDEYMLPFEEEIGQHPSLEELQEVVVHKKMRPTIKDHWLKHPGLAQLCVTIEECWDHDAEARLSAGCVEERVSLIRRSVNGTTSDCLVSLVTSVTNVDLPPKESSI
Adenosine kinase, sequence (P55263 whole entry): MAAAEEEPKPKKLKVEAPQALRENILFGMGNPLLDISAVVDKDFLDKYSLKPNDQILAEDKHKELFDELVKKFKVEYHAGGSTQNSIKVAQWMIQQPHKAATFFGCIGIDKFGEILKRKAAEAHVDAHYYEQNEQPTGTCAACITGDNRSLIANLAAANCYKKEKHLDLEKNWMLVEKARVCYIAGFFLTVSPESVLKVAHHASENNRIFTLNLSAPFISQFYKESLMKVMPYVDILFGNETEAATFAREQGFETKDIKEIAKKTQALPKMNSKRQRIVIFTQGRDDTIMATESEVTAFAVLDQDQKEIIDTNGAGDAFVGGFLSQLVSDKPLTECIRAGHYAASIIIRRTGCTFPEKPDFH
Cyclin-dependent kinase 3, sequence (Q00526 whole entry): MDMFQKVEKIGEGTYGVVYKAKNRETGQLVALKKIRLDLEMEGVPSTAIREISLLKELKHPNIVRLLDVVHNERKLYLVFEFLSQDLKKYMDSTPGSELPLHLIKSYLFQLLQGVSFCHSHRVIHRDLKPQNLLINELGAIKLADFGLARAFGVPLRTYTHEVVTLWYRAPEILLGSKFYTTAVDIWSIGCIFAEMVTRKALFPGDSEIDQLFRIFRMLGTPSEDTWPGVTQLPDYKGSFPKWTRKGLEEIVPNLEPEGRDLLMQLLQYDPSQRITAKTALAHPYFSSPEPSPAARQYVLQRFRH
TGF-beta receptor type-2, sequence (P37173 whole entry): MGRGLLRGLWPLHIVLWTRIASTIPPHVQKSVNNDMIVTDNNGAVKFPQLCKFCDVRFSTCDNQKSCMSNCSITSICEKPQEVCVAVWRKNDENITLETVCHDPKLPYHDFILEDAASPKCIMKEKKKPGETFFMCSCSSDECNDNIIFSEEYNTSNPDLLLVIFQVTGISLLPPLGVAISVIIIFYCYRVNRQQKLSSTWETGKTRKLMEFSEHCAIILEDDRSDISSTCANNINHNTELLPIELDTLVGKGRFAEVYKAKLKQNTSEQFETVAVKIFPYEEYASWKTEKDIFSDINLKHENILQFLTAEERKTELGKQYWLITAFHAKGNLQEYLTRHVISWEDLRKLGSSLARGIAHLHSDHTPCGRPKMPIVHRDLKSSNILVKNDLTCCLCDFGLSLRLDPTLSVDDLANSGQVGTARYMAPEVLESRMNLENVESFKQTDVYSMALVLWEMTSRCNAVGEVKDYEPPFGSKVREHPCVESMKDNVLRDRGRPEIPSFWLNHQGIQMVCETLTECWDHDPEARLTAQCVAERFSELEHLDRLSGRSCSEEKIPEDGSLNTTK
Tyrosine-protein kinase Fyn, sequence (P06241 whole entry): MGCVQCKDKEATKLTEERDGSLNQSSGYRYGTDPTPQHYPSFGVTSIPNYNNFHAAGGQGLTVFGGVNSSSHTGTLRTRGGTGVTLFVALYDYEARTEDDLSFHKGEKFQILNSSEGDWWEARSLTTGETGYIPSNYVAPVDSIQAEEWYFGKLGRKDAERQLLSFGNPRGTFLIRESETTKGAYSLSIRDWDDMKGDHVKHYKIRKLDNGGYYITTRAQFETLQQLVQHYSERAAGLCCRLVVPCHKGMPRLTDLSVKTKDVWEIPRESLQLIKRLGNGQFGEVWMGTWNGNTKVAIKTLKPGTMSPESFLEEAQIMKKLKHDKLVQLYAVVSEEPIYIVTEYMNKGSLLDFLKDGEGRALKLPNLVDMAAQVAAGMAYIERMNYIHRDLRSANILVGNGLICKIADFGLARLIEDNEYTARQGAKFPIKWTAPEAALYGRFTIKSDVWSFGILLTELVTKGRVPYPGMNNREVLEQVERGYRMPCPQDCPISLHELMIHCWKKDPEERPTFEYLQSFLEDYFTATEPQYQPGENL

SMILES	Kd [1]	Kd (Activin receptor type-2B)	Kd [2]	Kd [3]	Kd [4]	Kd (Adenosine kinase)	Kd (TGF-beta receptor type-2)	Kd [5]	Kd (Activated CDC42 kinase 1)
O=c1[nH]c([C@@H]2CCCN2)nc2c1oc1ccc(Cl)cc12	> 30 µM (inactive)	> 30 µM (inactive)	> 30 µM (inactive)	> 30 µM (inactive)	> 30 µM (inactive)	> 30 µM (inactive)	> 30 µM (inactive)	> 30 µM (inactive)	> 30 µM (inactive)
Cn1cc(-c2[nH]c3cc(NC(=O)[C@H](N)C4CCCCC4)cc4c3c2C=NNC4=O)cn1	1.34 µM (active)	> 30 µM (inactive)	> 30 µM (inactive)	> 30 µM (inactive)	> 30 µM (inactive)	> 30 µM (inactive)	0.146 µM (active)	> 30 µM (inactive)	> 30 µM (inactive)
Cc1c(NC(=O)OC[C@@H]2COCCN2)cn2ncnc(Nc3ccc4c(cnn4Cc4cccc(F)c4)c3)c12 [AC-480]	> 30 µM (inactive)	> 30 µM (inactive)	> 30 µM (inactive)	> 30 µM (inactive)	> 30 µM (inactive)	> 30 µM (inactive)	> 30 µM (inactive)	> 30 µM (inactive)	> 30 µM (inactive)
CCc1cc2c(cc1N1CCC(N3CCOCC3)CC1)C(C)(C)c1[nH]c3cc(C#N)ccc3c1C2=O [ALECTINIB]	> 30 µM (inactive)	> 30 µM (inactive)	> 30 µM (inactive)	> 30 µM (inactive)	> 30 µM (inactive)	> 30 µM (inactive)	> 30 µM (inactive)	> 30 µM (inactive)	> 30 µM (inactive)
COc1ccc(-c2ccc3ncc4c(c3c2)n(-c2ccc(N3CCNCC3)c(C(F)(F)F)c2)c(=O)n4C)cn1 [BGT-226 FREE BASE]	> 30 µM (inactive)	> 30 µM (inactive)	> 30 µM (inactive)	> 30 µM (inactive)	> 30 µM (inactive)	> 30 µM (inactive)	> 30 µM (inactive)	> 30 µM (inactive)	> 30 µM (inactive)
COc1cc2nccc(Oc3ccc(NC(=O)C4(C(=O)Nc5ccc(F)cc5)CC4)cc3)c2cc1OC [CABOZANTINIB]	> 30 µM (inactive)	> 30 µM (inactive)	> 30 µM (inactive)	> 30 µM (inactive)	> 30 µM (inactive)	> 30 µM (inactive)	> 30 µM (inactive)	> 30 µM (inactive)	> 30 µM (inactive)
CC1(COc2ccc3c(c2)ncn3-c2ccc3cccc(N4CCC(N)CC4)c3n2)COC1 [CRENOLANIB]	> 30 µM (inactive)	> 30 µM (inactive)	> 30 µM (inactive)	> 30 µM (inactive)	1.07 µM (active)	> 30 µM (inactive)	> 30 µM (inactive)	> 30 µM (inactive)	> 30 µM (inactive)
COc1cc2ncnc(Nc3ccc(F)c(Cl)c3)c2cc1NC(=O)/C=C/CN1CCCCC1 [DACOMITINIB ANHYDROUS]	> 30 µM (inactive)	> 30 µM (inactive)	> 30 µM (inactive)	> 30 µM (inactive)	> 30 µM (inactive)	> 30 µM (inactive)	> 30 µM (inactive)	> 30 µM (inactive)	> 30 µM (inactive)

Second part, the compound after the results:

Kd [1]	Kd (Activin receptor type-2B)	Kd [2]	Kd [3]	Kd [4]	Kd (Adenosine kinase)	Kd (TGF-beta receptor type-2)	Kd [5]	Kd (Activated CDC42 kinase 1)	SMILES
> 30 µM (inactive)	> 30 µM (inactive)	> 30 µM (inactive)	> 30 µM (inactive)	> 30 µM (inactive)	> 30 µM (inactive)	> 30 µM (inactive)	> 30 µM (inactive)	> 30 µM (inactive)	COc1ccc2c(OCc3nnc4ccc(-c5ccccc5)nn34)ccnc2c1 [AMG-208]
> 30 µM (inactive)	> 30 µM (inactive)	> 30 µM (inactive)	> 30 µM (inactive)	0.942 µM	> 30 µM (inactive)	> 30 µM (inactive)	> 30 µM (inactive)	0.515 µM (active)	Cc1cc(Nc2nc(N[C@@H](C)c3ncc(F)cn3)ncc2Cl)n[nH]1 [AZD-1480]
0.583 µM (active)	> 30 µM (inactive)	1.05 µM (active)	0.14 µM (active)	> 30 µM (inactive)	> 30 µM (inactive)	> 30 µM (inactive)	> 30 µM (inactive)	0.208 µM (active)	COc1cccc(Nc2ncnn3ccc(CN4CC[C@@H](N)[C@H](O)C4)c23)c1 [BMS-690514]
> 30 µM (inactive)	> 30 µM (inactive)	> 30 µM (inactive)	> 30 µM (inactive)	> 30 µM (inactive)	> 30 µM (inactive)	> 30 µM (inactive)	> 30 µM (inactive)	> 30 µM (inactive)	CCOc1ccn(-c2ccc(F)cc2)c(=O)c1C(=O)Nc1ccc(Oc2ccnc(N)c2Cl)c(F)c1 [BMS-777607]
> 30 µM (inactive)	> 30 µM (inactive)	> 30 µM (inactive)	0.056 µM (active)	> 30 µM (inactive)	> 30 µM (inactive)	> 30 µM (inactive)	> 30 µM (inactive)	> 30 µM (inactive)	c1cc(OCCN2CCCCC2)cc(-c2n[nH]c3ccc(-c4nc[nH]n4)cc23)c1 [CC-401]
> 30 µM (inactive)	> 30 µM (inactive)	> 30 µM (inactive)	> 30 µM (inactive)	> 30 µM (inactive)		> 30 µM (inactive)	0.365 µM (active)	> 30 µM (inactive)	Cc1cc(C(=O)Nc2cc(Oc3ccc4nc(NC(=O)C5CC5)cn4n3)ccc2C)n(C)n1 [TAK-593]
